Assay results reported in patent US12139534B2, “Methods and compositions for decreasing soluble immune receptor CD28” (BIOND BIOLOGICS LTD., priority 2018, dated 2024).

Columns and labels:
human PBMCs [1] = assay: Soluble CD28 generation by SEB or CMV stimulated PBMCs, human CD28 ELISA; assay type: cell-based; conditions: for sCD28 levels detected with antibodies of the invention: stimulated cells with protease inhibitors, sandwich ELISA
Procedure: (§1) ELISA—Commercial ELISA kits were used for quantitation of the amount of human interferon-gamma (Biolegend, Cat. No. 430103), human interleukin 2 (Biolegend, Cat. No. 431802), human interleukin 6 (Biolegend, Cat. No. 430502), human interleukin 10 (Biolegend, Cat. No. 430603), human […] beta 1 (Biolegend, Cat. No. 436708), human interleukin beta 1 (Biolegend, Cat. No. 437004) and human CD28 (R&D system, Cat. No. DY342). Cell Proliferation and viability (MTT assay) was conducted according to manufacturer instructions (Roche, cat #11465007001). Kynurenine (IDO activity) ELISA kit was conducted according to manufacturer instructions (ImmuSmo Cat #BA E-2200).
(§2) Protease Inhibitors—Protease inhibitors were added at the indicated concentrations at the start of each experiment. In week long assays another portion of the inhibitors was added after 3 days at the final concentration. […] Where mentioned the protease cocktail was composed with a mixture of TAPI-1 and GM6001 at equimolar ratio.
SEB or CMV activation of PBMCs for the generation of soluble CD28—0.3×10^6 PBMCs were stimulated with 0.5 ng/mL SEB (Sigma, Cat. No. S4881) for 5-7 days at 37° C. with/without the indicated concentration of various protease inhibitors in 48 well plate. Alternatively, 0.1×10^6 PBMCs were stimulated with 0.5 ng/mL SEB in 96 well plate format assay. For CMV stimulation 0.5×10^6 PBMCs were stimulated with 0.5 μg/mL CMV peptivator (Milteny Biotec, Cat. No. 130-093-435) for 2-5 days at 37° C. with/without the indicated concentration of various protease inhibitors in a 96 well plate. For continuous shedding experiments PBMC were stimulated with SEB or CMV in 24 well plate for 24 hr, cells were taken and washed three times with RPMI without stimulant and plated again in a 96 well plate. Samples were taken at indicated times and put under freezing conditions until examination for soluble CD28.

Jurkat T cell line = assay: Soluble CD28 generation by PHA activated Jurkat T cell line, CD28 ELISA; assay type: cell-based, human; conditions: PHA 1-4 μg/mL, TAPI-1 and GM6001 cocktail 0.5-2 μM
Procedure: as §1, §2
(§3) PHA activation of CD4 T cells or Jurkat T cell line for the generation of soluble CD28—1×10^5 Jurkat cells or CD4 T cells were incubated with the indicated concentration of Phytohemagglutinin (Sigma, Cat. No. L8902) and various protease inhibitors for additional 5 (Jurkat) or 7 days (CD4 T cells).

human CD4 T cells = assay: Soluble CD28 generation by PHA activated CD4 T cells, CD28 ELISA; assay type: cell-based; conditions: PHA 1-4 μg/mL, TAPI-1 and GM6001 cocktail 0.5-2 μM
Procedure: as §1, §2, §3

human PBMCs [2] = assay: Viability of SEB stimulated PBMCs with ADAM inhibitors (MTT assay); assay type: cell-based; conditions: SEB 1 ng/mL, inhibitor 0.01-1 μM, with vs without inhibitor
SCC-25 cells = assay: SCC-25 cancer cell line trans-well co-culture with monocytes, proliferation; assay type: cell-based, human
Procedure: Co-culture of SCC-25 cancer cell line with monocytes in trans-well based assay—4×10^4 SCC-25 cells were plated on the bottom of 24 well plate with 1×10^5 monocytes placed on cell culture insert (Millipore, Cat. No. MCHT241148) with or without indicated treatments for 4 days in starvation media without serum.
Next, cells of the head and neck cancer cell line SCC-25 were incubated either alone or with monocytes in a trans-well assay. SCC-25 cells grown alone were administered IL-6 as a positive control, and indeed cell proliferation, as measured by MTT (FIG. 10D, upper) and as measured by % confluency (FIG. 10D, lower), was increased.

[3] = test system: autologous monocytes and CD3 T cells; assay: Autologous monocytes CD3 MLR with CMV peptide, cytokine secretion; assay type: cell-based, human
Procedure: Autologous monocytes CD3 MLR—0.5×10^6 T cells were mixed with 0.5×10^5 monocytes from same CMV reactive donor and stimulated with 0.5 μg/mL CMV peptivator for 6 days at 37° C. with/without the indicated concentration of treatments.
The mixed cells were stimulated for 5 days with CMV peptide (0.5 μg/mL) with and without increasing concentrations of recombinant human sCD28.
The MLR was run as before only with and without sCD28 and with and without an anti-PD1 antibody (MK3475, 5 μg/mL) (FIG. 9B).

human PBMCs [4] = assay: SEB or CMV stimulated PBMCs with anti-PD1 and/or soluble CD28, cytokine secretion; assay type: cell-based
human PBMCs [5] = assay: CMV stimulation of PBMCs with ectopic recombinant human CD28, CTLA-4, CD80; cytokine ELISA/multiplex; assay type: cell-based
human PBMCs [6] = assay: Lymphocyte clustering of SEB stimulated PBMCs (IncuCyte); assay type: cell-based; conditions: SEB 1 ng/mL; human IgG control
Procedure: Next, human PBMCs were stimulated with SEB (1 ng/mL) without or in the presence of recombinant human CD28. Human IgG was used as control. Lymphocyte clustering, a hallmark of immune activation was monitored using the IncuCyte® S3 Live-Cell, with pictures taken every 12 hours. […] It is well established that during in-vitro immune response antigen presenting cells (APC) cluster with one another and with other cell types, and clustering is essential for the antigen specific activation of resting lymphocytes.

human monocytes = assay: Stimulation of monocytes with recombinant human CD28 (IDO, PD-L1, PD-L2); assay type: cell-based; conditions: recombinant human CD28 10 μg/mL
Procedure: Flow Cytometry—Generally, cells were kept on ice during all steps. Prior to staining, 5×10^5 cells were blocked with 50 μg/mL human IgG (Sigma, Cat. No. 14506) in FACS buffer (PBS with 0.1% BSA) for 15 min. Antibodies were used at concentrations recommended by the manufacturer and incubated for 30 min. in the dark. Incubations were done in a volume of 100 μL in 96-well U bottom plates. Cells were washed twice with 200 μL of FACS buffer and transferred to FACS tubes in 150 μL of FACS buffer for analysis. Cells were analyzed on a Gallios Flow Cytometer (Beckman Coulter) using the Kaluza for Gallios Flow Cytometry Acquisition Software.
Stimulation of monocytes with recombinant human CD28—1.5×10^6 monocytes were plated at 24 well plate in RPMI medium with […] IFN gamma (R&D system, Cat. No. 285-IF) in the presence of recombinant human CD28 at the indicated concentrations for 48 hrs. The generated cell populations were tested for the indicated phenotypes by FACS analysis of relevant markers (IDO, PD-L1 and PD-L2) and by analysis of secretion of characteristic cytokines (IL-6).
The enzyme indoleamine 2,3-dioxygenase (IDO) has been implicated in immune modulation through its ability to catabolize the essential amino acid Tryptophan. It is expressed by different immune cells and also by many cancer cells. Tryptophan shortage inhibits T lymphocytes maturation and proliferation, while Kynurenine, the end product of tryptophan catabolism, is also known as immunosuppressive metabolite that promotes immune tolerance in various physiological and pathophysiological conditions. To test the effect of sCD28 on IDO, isolated human monocytes were stimulated for 48 hr with IFNγ (1000 U/mL) in the presence of control human IgG or with recombinant human CD28 (10 μg/mL). After incubation, the monocytes were stained intracellularly for human IDO (FIG. 8E). To facilitate intracellular staining the cells were fixed and permeabilized with BD Cytofix/Cytoperm Buffer Kit. […]

[7] = test system: PBMCs isolated from cancer patients; assay: SEB stimulated PBMCs of cancer patients, IFN gamma secretion; assay type: cell-based, human; conditions: SEB 5 ng/mL, 3 days
[8] = test system: isolated CD3 human T cells; assay: CD3 T cells stimulation with anti-CD3 OKT3, IFN gamma secretion; assay type: cell-based; conditions: OKT3 2 μg/mL, CD80-Fc 2 μg/mL, sCD28 titration
Procedure: T cells stimulation with OKT3—0.1×10^6 isolated CD3 T cells (from healthy donors) were stimulated with indicated amount of anti-CD3 clone OKT3 for 48-72 hr at 37° C. When stated recombinant human CD80-Fc (2 μg/mL, R&D system) was added in soluble form. Antibodies to CD28 or controls were added at the indicated concentration in soluble form.
CD80 is one of the two main ligands for mCD28 along with CD86. The extracellular domain of CD80 fused to an Fc moiety has been used as an immune stimulatory molecule and is under investigation as a cancer therapy. In order to examine the effect of sCD28 on CD80-Fc efficacy, isolated CD3 human T cells were stimulated with plate bound anti-CD3 antibody (OKT3, 2 μg/mL) in the presence of 2 μg/mL soluble recombinant human CD80-Fc.

[9] = test system: H22 hepatocellular carcinoma cells; assay: H22 syngeneic mouse model, tumor growth; assay type: in vivo; conditions: Balb/c mice, H22 allograft, with anti-PD-1 therapy
Excerpt: The closest option is to administer recombinant sCD28 to mice to mimic a situation of elevated sCD28 levels. This was investigated in a H22 syngeneic mouse model. Balb/c fully immunocompetent mice received an allograft of H22 hepatocellular carcinoma cells.

Question: Which “amount of sCD28 in culture” value (human PBMCs [1]; PBMCs stimulated with SEB or CMV, TAPI-1 and GM6001 protease inhibitor cocktail) does the source give for `CC(C)C[C@H](CC(=O)NO)C(=O)N[C@@H](Cc1ccc2ccccc2c1)C(=O)N[C@@H](C)C(=O)NCCN` [TAPI-1] here?
Answer: Its value is “diminish the amount of sCD28 in a dose dependent manner”.

Question: And the “sCD28 levels detected with antibodies of the invention” value (human PBMCs [1])?
Answer: Its value is “Lower levels of sCD28”.

Question: What about the “amount of sCD28 in supernatant” value (Jurkat T cell line) of the same compound?
Answer: The value was “diminished the amount of sCD28”.

Question: And the “amount of sCD28 in supernatant” value (human CD4 T cells)?
Answer: The value was “diminished the amount of sCD28”.

Question: What does the source list for `CC#CCOc1ccc(S(=O)(=O)N2CCSC(C)(C)[C@@H]2C(=O)NO)cc1` [TMI-1]?
Answer: sCD28 levels detected with antibodies of the invention (human PBMCs [1]): Lower levels of sCD28; viability of the immune cells (MTT) (human PBMCs [2]): no significant difference

Question: Which “cell proliferation (MTT, % confluency)” value (SCC-25 cells; SCC-25 cells grown alone) does the source give for “IL-6: interleukin-6 administered as a positive control” here?
Answer: Its value is “increased”.

Question: Which IFN gamma secretion ([3]; CMV peptide 0.5 μg/mL) does the source give for “MK-3475: Anti-Human PD-1 pembrolizumab [reference compound]” here?
Answer: Its IFN gamma secretion is “increased IFN gamma secretion”.

Question: What about the TGF beta secretion ([3]; CMV peptide 0.5 μg/mL) of the same compound?
Answer: Its TGF beta secretion is “decreased TGF beta secretion”.

Question: What about the “proinflammatory cytokine secretion (IFN gamma and IL-2)” value (human PBMCs [4]; PBMC culture, SEB or CMV, 3 days, MK3475 5 μg/mL) of the same compound?
Answer: The value was “increased proinflammatory cytokine secretion”.

Question: “sCD28: recombinant human CD28 lacking the transmembrane and cytoplasmic domains” was tested. Which IFN gamma secretion (human PBMCs [5]; CMV 0.5 μg/mL) did it give?
Answer: The IFN gamma secretion was “dose-dependent inhibition of IFN gamma secretion”.

Question: What about the IL-6 secretion (human PBMCs [5]; CMV 0.5 μg/mL) of the same compound?
Answer: The IL-6 secretion was “increase IL-6 cytokine secretion”.

Question: And the interleukin-10 secretion (human PBMCs [5]; CMV 0.5 μg/mL)?
Answer: Its interleukin-10 secretion is “elevation”.

Question: And the “CD80-Fc amount needed for immune response” value (human PBMCs [5]; CMV peptide 3 days, constant sCD28, CD80-Fc titration)?
Answer: The value was “an increased amount of CD80-Fc was required”.

Question: And the lymphocyte cluster formation (human PBMCs [6])?
Answer: Its lymphocyte cluster formation is “diminish the amount and size of cluster formation”.

Question: And the IFN gamma secretion ([3]; CMV peptide 0.5 μg/mL)?
Answer: Its IFN gamma secretion is “inhibit IFN gamma secretion”.

Question: What about the TGF beta secretion ([3]; CMV peptide 0.5 μg/mL) of the same compound?
Answer: Its TGF beta secretion is “increasing the secretion”.

Question: And the IL-1B secretion ([3]; CMV peptide 0.5 μg/mL, 5 days)?
Answer: The IL-1B secretion was “increasing the secretion”.

Question: And the IL-10 secretion ([3]; CMV peptide 0.5 μg/mL, 5 days)?
Answer: Its IL-10 secretion is “increasing the secretion”.

Question: What about the “effect of MK-3475 in the presence of sCD28” value ([3]; MK3475 5 μg/mL) of the same compound?
Answer: Its value is “significantly reduced”.

Question: What about the “PD-L1 expression on monocytes” value (human monocytes; IFNγ 1000 U/mL 48 hours) of the same compound?
Answer: Its value is “upregulated”.

Question: And the “PD-L2 expression on monocytes” value (human monocytes; IFNγ 1000 U/mL 48 hours)?
Answer: Its value is “upregulated”.

Question: And the “IDO expression in monocytes” value (human monocytes; IFNγ 1000 U/mL 48 hr)?
Answer: The value was “strongly enhanced IDO expression”.

Question: What about the “effect on immune activation by MK-3475” value (human PBMCs [4]; sCD28 2 and 10 μg/mL with MK3475 5 μg/mL) of the same compound?
Answer: Its value is “abrogated completely this immune activation effect”.

Question: What about the “effect on MK-3475 activity” value [7] of the same compound?
Answer: The value was “rendered the effect of MK-3475 nonexistent”.

Question: What about the “concentration of human IFN gamma in the supernatant” value ([7]; with or without MK-3475) of the same compound?
Answer: Its value is “greatly reduced”.

Question: What about the “cell proliferation (MTT, % confluency)” value (SCC-25 cells; SCC-25 coculture with monocytes) of the same compound?
Answer: The value was “by far the greatest increase”.

Question: And the “effect on CD80-Fc activation (IFN gamma secretion)” value [8]?
Answer: The value was “counteracted the secondary activation effect of the CD80-Fc”.

Question: What about the “effect on anti-PD-1 therapy (tumor growth)” value [9] of the same compound?
Answer: The value was “nearly completely abrogated in two of the mice”.
